Assays:
[1] = system: CFA-induced pain model in rats; test: Antiallodynic activity on Complete Freund's Adjuvant (CFA)-induced inflammatory pain model; format: in vivo, Sprague-Dawley rats; details: 50 mg/kg intraperitoneally, von Frey threshold relative to sham, 0.5 hr after administration; for response vs control in vivo at 50 mg/kg: Rattus norvegicus, ip, read-out: Efficacy of 50 mg/kg(%)
Description: Male, Sprague-Dawley rats (210-250 g, Nara Bio, Korea) were habituated for 1 week before surgery and allowed free access to food and water throughout the experimentation. Room temperature and humidity were maintained at 24±2 and 50±10%, respectively.
CFA-induced inflammatory pain was induced by the procedure of Nagakura et al. (2003) and Gregory P. et al. (2010) with minor modifications. CFA (sigma, USA) was injected in the right plantar with a 100 ul volume under gaseous anesthesia with isoflurane. Sham controls were injected with 100 ul of saline, and preparation of the vehicle controls were identical to the group treated with compound, except for administration of vehicles without indentical to the vihecle control group.
Tactile sensitivity (Mechanical allodynia) was evaluated using von Frey monofilaments before and after treatment, and animals were include in the study only if the withdrawal threshold value was less than 4 g. One week after CFA injection, CFA-infused animals, sham-operated animal, and vehicle-operated animals were tested for tactile sensitivity with von Frey monofilaments, with 3 trials for each animal. All Animals were placed in a stainless steel mashe chamber and habituated for 30 min in the test cage. The tactile sensitivity for ipsilateral hind paw was measured using the up-and-down method (Dixon, 1980) with seven von Frey monofilaments (0.4, 1, 2, 4, 6, 8, and 15 g) to 3 trials. The tactile sensitivity test was followed by Dixon's method (Dixon, 1980). The 50% paw withdrawal threshold for each paw was calculated using the following formula: [Xth]log=[vFr]log+ky where [vFr] is the force of the last von Frey used, k=0.2249 which is the average interval (in log units) between the von Frey monofilaments, and y is a value that depends upon the pattern of withdrawal responses (Dixon, 1980).
Antiallodynic effect of compounds was evaluated at the dose of 50 mg/kg (n=4-6), intraperitoneally administrated in a volume of 5 ul/g bw in a vehicle of 30% (v/v) PEG or 20% (v/v) Tween 80. The test was performed peak time of efficacy (0.5 hr) after compound administration.
The relative values compared to the sham (% control) were calculated and shown in Table 5, which show an antiallodynic effect of Compound 1 on CFA-induced pain model in rats.

[2] = system: MES (electroshock) seizure in mice; test: Anti-epilepsy activity, MES test in mouse; format: in vivo, ICR mice
Description: (§1) In the MES test (Ref., G. Villetti et al. Neuropharmacology 40(2001) 866-878), an electrical stimulus (mice: 50 mA, 60 Hz, 0.2 sec, and rats: 150 mA, 60 Hz, 0.2 sec in the test animal) supplied by an 11A Shocker (IITC Life Science Company) was delivered through corneal electrodes. All mice or rats assigned to any electroshock at peak time were treated with each test compound sample which was dissolved in 20% tween 80 prepared by saline solvent applied orally before the test. […] Three doses of the test sample were administered orally to 9-18 animals (3-6 mice per dose) for evaluating the respective doses at which 50% of the animals were protected from seizure (ED50). The ED50 value (median effective dose) was calculated by Litchfield and Wicoxon log-probit method which is a dose-response relationship. Experimental animals, male ICR mice and male SD rats, were purchased from OrientBio, Samtako, or Nara Biotech, Korea, and housed in cages (4-5 mice or 3 rats per cage) for 4-5 days. The range of mice body weight was between 19 and 25 grams and range of rats body weight was between 100 and 130 grams.

[3] = system: MES (electroshock) seizure in rats; test: Anti-epilepsy activity, MES test in rats; format: in vivo, SD rats; details: for ED50: Rattus norvegicus, po; for MES test (po) efficacy %: dose 10 mg/kg
Description: as §1

[4] = system: PTZ (Pentylenetetrazol)-induced clonic seizure in mice; test: Anti-epilepsy activity, scPTZ test in mouse; format: in vivo, ICR mice
Source text: (§2) In this experiment, each test compound sample was formulated as described in Biological Experimental Example 1, and administered intraperitoneally to the test animals (mice; ICR or Rat; SD); Experimental animals, male ICR mice and male SD rats, were purchased from OrientBio or Nara biotech, Korea, and housed 4-5 mice per a cage for 4-5 days. The range of mice body weight was used between 19 and 26 grams and range of rats body weight was used between 100 and 130 grams. After Peak time (0.5, 1, 2 and 4 hr) from the administration, PTZ (Pentylenetetrazol) was administered subcutaneously in the concentration capable of inducing 97% intermittent convulsions (mice: 100-110 mg/kg?bw, 10 μl/g, or rats: 90-110 mg/kg?bw, 2 μl/g). If clonic seizure was not observed for at least 30 minutes in the PTZ administered animal, it can be considered that the test compound has anti-epilepsy activity. The median effective dose (ED50) is determined using 6 animals per a concentration (total three different concentrations), and calculated by Litchfield and Wicoxon log-probit method which is a dose-response relationship.

[5] = system: Lithium-pilocarpine induced seizure in rats; test: Lithium-pilocarpine induced epilepsy test (LI-PILO), prevention test; format: in vivo, Sprague-Dawley rats; details: i.p.
Description: Male Sprague-Dawley rats (purchased from Orient Bio Inc. Korea) of body weight 175 grams were used for these studies and 3 rats per cage were housed for 4-5 days. On the day prior to SE, rats received 127 mg/kg lithium chloride (Sigma, St. Louis, Mo., U.S.A.) intraperitoneally (i.p.). Approximately 18-20 h following this treatment, rats were given an i.p. injection of the concentration capable of inducing 97% intermittent convulsions pilocarpine(Sigma, 30-43 mg/kg). An i.p. injection of 2 mg/kg methyl-scopolamine (Sigma) was administered 30 min prior to pilocarpine to block the effects of the muscarinic agonist on peripheral cholinergic receptors. Test drugs were dissolved in 20% tween80 (Sigma).
The drugs were administered intraperitoneally (i.p.) in a volume of 2 μl/g body weight. Pharmacological effects of all of the test materials were evaluated to compare test groups (n=6) with a control group (n=6). Control group was administered vehicle only. The efficacy was measured 0.5, 1, 2, or 4 hours after the administration of the test material. The time point that the most animals were protected was defined as peak time and the ED50 was determined at peak time. The animals were then transferred to observation cages and observed continuously for 90 min Seizure was elicited in approximately 95% of the control group. Protection was defined as complete absence of seizure grade 3-5 (Racine scale; Racine, 1972) over the 90-min observation period. The effective dose of the compound necessary to protect 50% of the animals against seizures compared to controls (i.e., ED50) was determined by a curve fitting program (Excel 2007, Microsoft).

[6] = system: acetic acid-induced writhes in ICR mice; test: Writhing test (acetic acid); format: in vivo; details: Mus musculus, po
Description: To examine the pain relief effect of the carbamate compounds, a writhing test was conducted, referring to Fischer, L. G. et al. (2008).
ICR mice (male, 24-28g; Orient Bio, Korea) were habituated before test (in test room) for 1 hour. Animals were fasted 2 hr before administration of compounds. Each of compounds was orally administered at the three dose, 10 ul/g, bw (n=3-5/group). All compounds were dissolved in a vehicle of 30% (v/v) PEG 400 or 20% (v/v) Tween 80. The control group was treated the vehicle without compounds.
0.2-2 hour after the administration of compounds, 0.6% acetic acid at the dose of 10 ul/g by bodyweight was injected into the mice Animals were habituated in the cage for 5 min. 5 min after habituation, the number of writhes (abdominal constriction) was counted for 15 min, referring to Korzeniewska-Rybicka, I. et al. (1998) and compared with that of a control.
The relative values compared to the control (% control) were calculated and shown in […]

[7] = system: PTZ (Pentylenetetrazol)-induced clonic seizure in rats; test: Anti-epilepsy activity, scPTZ test in rats; format: in vivo, SD rats
Source text: as §2

[8] = system: ICR mice, tail-flick analgesia meter; test: Tail-flick test; format: in vivo; details: orally, withdrawal latency
Description: To examine the pain relief effect of the carbamate compounds, a tail-flick test was conducted, referring to Current Protocols in Neuroscience; Behavioral Neuroscience Unit 8.9.
ICR mice (male, 25-30g; Orient Bio, Korea) were habituated before test (in test room) for 1 hour. Animals were fasted 2 hr before administration of compounds. Each of Compound was orally administered at the 1-3 dose, 10 ul/g, by bodyweight (n=4-6/group). All compounds were dissolved in a vehicle of 30% (v/v) PEG 400 or 20% (v/v) Tween 80. The control group was treated the vehicle without compounds.
After the administration of compounds, the mice tail were put on a tail-flick analgesia meter. To avoid tissue damage, maximal exposure time to pain stimuli was restricted to 15 s. The withdrawal latency was measured to the time to the point when each mouse responded. The relative values compared to the control (% control) were calculated.
The relative values compared to the sham were calculated and shown in Table 7, which show effect of the compound of examples on tail-flick test in Mice.

[9] = po, read-out: MES test (po) efficacy %

Row | Molecule | response vs control in vivo at 50 mg/kg [1] [%] | ED50 [3] [mg/kg] | Lithium pilocarpine model (pre) efficacy % ([5]; dose 100 mg/kg) [%] | ED50 ([2]; po) [mg/kg] | further results
1 | 8-chloro-1-hydroxy-1,2,3,4-tetrahydronaphthalen-2-yl carbamate (mixture of SR & RS) [Example 3] |  |  |  |  | Efficacy of 50 mg/kg(%) [1]: 22.9%; MES test (po) ED50 [2]: 27.3 mg/kg; MES test (po) ED50 [3]: 12.1 mg/kg; PTZ test (ip) ED50 [4]: 25.2 mg/kg
2 | NC(=O)O[C@H]1CCc2cccc(Cl)c2[C@@H]1O [Example 5, (1S, 2S)-8-chloro-1-hydroxy-1,2,3,4-tetrahydronaphthalen-2-yl carbamate] | 30 |  |  |  | responders at 100 mg/kg [2, 9]: 100%; PTZ test (ip) efficacy % ([4]; dose 100 mg/kg): 100(16.6%)
3 | NC(=O)O[C@@H]1CCc2cccc(F)c2[C@@H]1O [Example 10, (1S, 2R)-8-fluoro-1-hydroxy-1,2,3,4-tetrahydronaphthalen-2-yl carbamate] | 35.2 | 17.5 | 66.6 |  | responders at 100 mg/kg [2, 9]: 100%
4 | NC(=O)O[C@H]1c2c(Cl)cccc2CC[C@H]1O [Example 18, (1S, 2R)-8-chloro-2-hydroxy-1,2,3,4-tetrahydronaphthalen-1-yl carbamate] | 50.2 | 18.8 | 16.6 | 45.8 | ED50 [6]: 55.6 mg/kg; scPTZ test (ip) efficacy % ([7]; dose 50 mg/kg): 50 (33.3%,
5 | NC(=O)O[C@H]1c2c(F)cccc2CC[C@H]1O [Example 25, (1S, 2R)-8-fluoro-2-hydroxy-1,2,3,4-tetrahydronaphthalen-1-yl carbamate] |  |  |  |  | responders at 50 mg/kg ([2]; po, dose 50 mg/kg, read-out: MES test (po) efficacy %): 75%; MES test (po) efficacy % [3]: 33.3%; Lithium pilocarpine model (pre) efficacy % ([5]; dose 10 mg/kg): 33.3%
6 | COCO[C@H]1c2c(Cl)cccc2CC[C@H]1OC(N)=O [Example 40, (1S, 2R)-8-chloro-1-(methoxymethoxy)-1,2,3,4-tetrahydronaphthalen-2-yl carbamate] |  |  | 66.6 |  | responders at 100 mg/kg [2, 9]: 100%
7 | NC(=O)O[C@@H]1Cc2cccc(Cl)c2[C@@H]1O [Example 51, (1S, 2R)-7-chloro-1-hydroxy-2,3-dihydro-1H-inden-2-yl carbamate] | 40.1 | 17.1 |  | 37 | scPTZ test (ip) efficacy % ([7]; dose 100 mg/kg): 100 (33.3%,
8 | NC(=O)O[C@H]1Cc2cccc(Cl)c2[C@@H]1O [Example 54, (1S, 2S)-7-chloro-1-hydroxy-2,3-dihydro-1H-inden-2-yl carbamate] |  |  | 83.3 | 26.7 | Tail-flick test Dose [8]: >200 mg/kg; MES test (po) efficacy % [3]: 33.3%
9 | NC(=O)O[C@@H]1Cc2cccc(F)c2[C@@H]1O [Example 55, (1S, 2R)-7-fluoro-1-hydroxy-2,3-dihydro-1H-inden-2-yl carbamate] | 34.4 |  | 33.3 | 51.9 | 
10 | NC(=O)O[C@H]1c2c(Cl)cccc2C[C@H]1O [Example 63, (1S, 2R)-7-chloro-2-hydroxy-2,3-dihydro-1H-inden-1-yl carbamate] | 53.1 | 19.1 |  | 51.9 | scPTZ test (ip) efficacy % ([7]; dose 100 mg/kg): 100 (83.3%,
11 | NC(=O)O[C@@H]1c2c(Cl)cccc2C[C@@H]1O [Example 64, (1R, 2S)-7-chloro-2-hydroxy-2,3-dihydro-1H-inden-1-yl carbamate] | 43.7 | 17.8 | 50 | 48.4 | Tail-flick test Dose [8]: >200 mg/kg; scPTZ test (ip) efficacy % ([7]; dose 50 mg/kg): 50%

Reference: patent US11168052B2, “Carbamate derivative compounds, processes for preparing them and their uses” (BIO-PHARM SOLUTIONS CO., LTD., priority 2016, dated 2021)
